Common to all, as to format: cell-based
In assay [1] the test system is 143B cells. Nature of the assay: Metabolomics of intracellular metabolites in 143B cells. The conditions noted are these: 48 h. The protocol:
(§1) 1-5.0×10^6 cells were harvested on dry ice with 1 mL pre-chilled 80% HPLC-grade methanol (Fluka Analytical). The cell mixture was incubated for 15 min on dry ice prior to centrifugation at 18,000 × g for 10 min at 4°C. The supernatant was retained, and the remaining cell pellet was resuspended in 800 µL chilled 80% methanol and centrifuged. Supernatant was combined with the previous retention and was lyophilized using a SpeedVac (Thermo Fisher). Lyophilized samples were resuspended in 20 µL ultrapure water and subjected to metabolomics profiling using the AB/SCIEX 5500 QTRAP triple quadrupole instrument. Data analysis was performed using the GiTools software. 13C-labeled glutamine and glucose was acquired in SIGMA (605166 and 389374).
Next, we conducted time-course experiments to gain further knowledge on the metabolic determinants underlying the observed synthetic lethality between PPP and OXPHOS. 143B cells were treated either with Piericidin or G6PDi (selective inhibitor of G6PD) alone or the combination of both and cell proliferation was quantified over the course of 96 h. […] Conversely, dual inhibition produced a marked reduction in cell survival beyond 48 h of treatment that was even more accentuated at 96 h (Figure 2A). […]

Assay [2] deals with 143B cells. Nature of the assay: Stable isotope tracing with uniformly labeled 13C-glutamine. The conditions noted are these: [U-13C]glutamine. The protocol: as §1
Encouraged by the beneficial effects of ME1 and because ME1-dependent NADPH production is linked to intracellular malate levels, we sought to investigate the metabolic pathways and nutrients that maintain malate production upon disruption of the ETC. It is firmly believed that in cells and tissues with defective ETC function, elevated NADH/NAD+ ratio inhibits the Pyruvate dehydrogenase complex (PDC), suppressing pyruvate entry into the mitochondria and forcing its channelling towards the Lactate Dehydrogenase (LDH) in the cytosol. […] To investigate the metabolic routes that ETC-inhibited cells used to generate glutamine-derived malate, we performed an MS-based stable isotope tracing study. DMSO and Piericidin treated 143B cells were cultured in glucose-DMEM supplemented with 2 mM of uniformly labeled [^13C]glutamine, and the incorporation of ^13C into the TCA cycle and related metabolic intermediates was quantified. Oxidative metabolism of [U-^13C]glutamine would generate M+4 isotopologues of oxaloacetate (OAA) and malate, while reductive carboxylation due to ETC inhibition (TCA cycle running in a counterclockwise direction) would produce M+3 forms of OAA and malate. DMSO-treated 143B cells used glutamine as the major anaplerotic precursor, resulting in a large amount of malate M+4. As expected, the oxidation of glutamine via the TCA cycle in CI-inhibited cells was severely diminished with a 5-fold decreased in M+4 labeled malate. Nevertheless, these cells produced citrate M+5 through reductive carboxylation of glutamine-derived a-ketoglutarate. This reaction involves addition of an unlabeled carbon by IDH2 acting in reverse relative to the canonical oxidative TCA cycle. Malate M+3 also rose more than a ~2-fold in CI-inhibited cells and was likely formed after cleavage of citrate M+5 by ATP-citrate lyase (ACLY) since this induction was blunted in ACLY KO cells. Thus, cells with defective ETC use glutamine-dependent reductive carboxylation rather than oxidative metabolism as the major pathway of malate production. […]

The test system of the next assay is PC KO and ACLY KO cells. Nature of the assay: Intracellular malate levels in PC KO and ACLY KO 143B cells. Conditions: double ablation of PC and ACLY, 100 nM, 72 h. The protocol: as §1
To assess the relative contribution of PC and ACLY to cell death phenotype in ETC deficient cells upon PPP inhibition, we treated PC KO and ACLY KO cells with Piericidin, G6PDi or both. […] A plausible explanation for the lack of phenotype in both PC and ACLY KO cells could be the upregulation of compensatory mechanisms whereby PC depletion would cause an enhanced rerouting of glutamine through ACLY and vice versa. […]

The mark [3] stands for this setting: CI-inhibited vs DMSO 143B cells.

Some results are limits rather than exact numbers.

For `CC=C(C)C(O)C(C)C=C(C)C=CCC(C)=CCc1nc(OC)c(OC)c(O)c1C` (stereo not shown) [Piericidin, Piericidin A], in the assay with 143B cells [1], the NADH result is listed as “accumulation” and the “intracellular levels of NADPH” value was “did not exert significant changes”. In the assay with 143B cells [2] (setting [3]), the “decrease in M+4 labeled malate” value was determined as 5 fold and the “rise of Malate M+3” value is on record as greater than 2 fold. Besides, in the assay on 143B cells [2] (control and PC KO cells, 24 h), the “labeling of malate M+3” value is “increasing” and the “malate M+4” value is “reduction”. Moreover, in the assay on PC KO and ACLY KO cells, the intracellular malate levels entry is “parallel decrease”.

Source of the values: patent publication EP4653001A1, “TREATMENT, DIAGNOSIS AND/OR PROGNOSIS OF MITOCHONDRIAL DISEASES” (Universidad Autónoma de Madrid, priority 2024, dated 2025).
